Assay results as given in ChEMBL document CHEMBL1201862, “PubChem BioAssay data set” (2004).
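Step 1: Grow cells in 96-well plates. Step 2: Expose to compound for 48 hours at 5 concentrations. Step 3: Interpolate endpoints linearly; if unreached, use highest concentration. GI50 marks 50% less growth.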 Active and inactive are the calls of the source. Cut-off read from the data, not from the text of the source: active = GI50 up to about 1.1 µM and inactive = higher.

Columns and labels:
Test in all cases: NCI anticancer screen, dose series, 48 h
BT-549 = test system: BT-549
RXF 393 = test system: RXF 393
HT-29 = test system: HT-29
A498 = test system: A498
OVCAR-5 = test system: OVCAR-5
RPMI-8226 = test system: RPMI-8226
SK-MEL-5 = test system: SK-MEL-5
MDA-MB-231 = test system: MDA-MB-231
NCI/ADR-RES = test system: NCI/ADR-RES
OVCAR-3 = test system: OVCAR-3
MOLT-4 = test system: MOLT-4
786-0 = test system: 786-0
CAKI-1 = test system: CAKI-1
HOP-92 = test system: HOP-92
MDA-N = test system: MDA-N
SR = test system: SR
Hs-578T = test system: Hs-578T
PC-3 = test system: PC-3

SMILES	GI50 (BT-549)	GI50 (RXF 393)	GI50 (HT-29)	GI50 (A498)	GI50 (OVCAR-5)	GI50 (RPMI-8226)	GI50 (SK-MEL-5)	GI50 (MDA-MB-231)	GI50 (NCI/ADR-RES)	GI50 (OVCAR-3)	GI50 (MOLT-4)	GI50 (786-0)	GI50 (CAKI-1)	GI50 (HOP-92)	GI50 (MDA-N)	GI50 (SR)	GI50 (Hs-578T)	GI50 (PC-3)
CC1(C)CC(=O)C2=C(C1)C(c1ccccc1Cl)C1C(=O)CC(C)(C)CC1(O)O2 (centres undefined)	> 100 µM (inactive)	> 100 µM (inactive)	> 100 µM (inactive)	> 100 µM (inactive)	> 100 µM (inactive)	> 84.1 µM (inactive)	64.1 µM (inactive)	> 100 µM (inactive)	> 89.1 µM (inactive)	> 100 µM (inactive)	74.5 µM (inactive)	> 100 µM (inactive)	98.2 µM (inactive)	> 100 µM (inactive)	19.6 µM (inactive)	28.1 µM (inactive)	> 72.3 µM (inactive)	> 100 µM (inactive)
CC1=CC(c2ccccc2)n2c(nc3cc4ccccc4cc32)N1 (centres undefined)	> 100 µM (inactive)	> 100 µM (inactive)	> 100 µM (inactive)	> 100 µM (inactive)	> 100 µM (inactive)	> 100 µM (inactive)	> 100 µM (inactive)	> 100 µM (inactive)	> 100 µM (inactive)	> 100 µM (inactive)	> 100 µM (inactive)	> 100 µM (inactive)	> 100 µM (inactive)	> 100 µM (inactive)	> 100 µM (inactive)	90.4 µM (inactive)	> 100 µM (inactive)	> 100 µM (inactive)
Cn1c(=O)c2[nH]c(CCC(=O)O)nc2n(C)c1=O	> 100 µM (inactive)	> 100 µM (inactive)	> 100 µM (inactive)	> 100 µM (inactive)	> 100 µM (inactive)	> 100 µM (inactive)	> 100 µM (inactive)	> 100 µM (inactive)	> 100 µM (inactive)	> 100 µM (inactive)	–	> 100 µM (inactive)	> 100 µM (inactive)	> 100 µM (inactive)	> 100 µM (inactive)	> 100 µM (inactive)	> 100 µM (inactive)	> 100 µM (inactive)
O=C(NNc1cn[nH]c(=O)n1)c1cccc2nc3ccccc3nc12	> 100 µM (inactive)	21.7 µM (inactive)	> 100 µM (inactive)	> 100 µM (inactive)	> 100 µM (inactive)	> 100 µM (inactive)	> 100 µM (inactive)	26.5 µM (inactive)	> 100 µM (inactive)	68.7 µM (inactive)	11 µM (inactive)	45.2 µM (inactive)	46.6 µM (inactive)	45.2 µM (inactive)	> 100 µM (inactive)	10.7 µM (inactive)	63.2 µM (inactive)	> 100 µM (inactive)
Cc1ccc(-c2n[nH]c(=O)[nH]2)cc1	> 100 µM (inactive)	> 100 µM (inactive)	> 100 µM (inactive)	> 100 µM (inactive)	> 100 µM (inactive)	> 100 µM (inactive)	> 100 µM (inactive)	> 100 µM (inactive)	> 100 µM (inactive)	> 100 µM (inactive)	> 100 µM (inactive)	> 100 µM (inactive)	> 100 µM (inactive)	44.9 µM (inactive)	> 100 µM (inactive)	> 100 µM (inactive)	> 100 µM (inactive)	> 100 µM (inactive)
C[C@H]1CCC/C=C/[C@@H]2C[C@H](OC(=O)CN(C)C)C[C@H]2[C@H](O)/C=C/C(=O)O1	0.232 µM (active)	0.0383 µM (active)	0.105 µM (active)	0.083 µM (active)	0.102 µM (active)	0.303 µM (active)	0.0395 µM (active)	0.0152 µM (active)	0.0139 µM (active)	0.169 µM (active)	0.187 µM (active)	0.0462 µM (active)	0.161 µM (active)	1.03 µM (active)	0.135 µM (active)	0.153 µM (active)	0.0458 µM (active)	0.141 µM (active)
Cc1cc(Br)cc(C)c1NC(=O)C(=O)Nn1c(S)nc2ccccc2c1=O	> 100 µM (inactive)	> 100 µM (inactive)	> 100 µM (inactive)	> 100 µM (inactive)	> 100 µM (inactive)	> 100 µM (inactive)	> 100 µM (inactive)	> 100 µM (inactive)	> 100 µM (inactive)	> 100 µM (inactive)	> 100 µM (inactive)	> 100 µM (inactive)	> 100 µM (inactive)	> 100 µM (inactive)	> 100 µM (inactive)	> 100 µM (inactive)	> 100 µM (inactive)	> 100 µM (inactive)
C[C@H]1CC[C@@H]2[C@@H](C)[C@H]3[C@H](C[C@H]4[C@@H]5CC=C6C[C@@H](O)CC[C@]6(C)[C@H]5C[C@H](O)[C@]34C)N2C1	> 100 µM (inactive)	> 100 µM (inactive)	> 100 µM (inactive)	> 100 µM (inactive)	> 100 µM (inactive)	> 100 µM (inactive)	> 100 µM (inactive)	> 100 µM (inactive)	> 100 µM (inactive)	> 100 µM (inactive)	> 100 µM (inactive)	> 100 µM (inactive)	> 100 µM (inactive)	> 100 µM (inactive)	> 100 µM (inactive)	> 100 µM (inactive)	> 100 µM (inactive)	> 100 µM (inactive)
Cc1cc(-c2nc3ccc(F)cc3s2)ccc1NC(=O)[C@H](C)N	13.7 µM (inactive)	7.91 µM (inactive)	2.56 µM (inactive)	9.02 µM (inactive)	4.56 µM (inactive)	3.11 µM (inactive)	12.9 µM (inactive)	10.4 µM (inactive)	13.2 µM (inactive)	8.59 µM (inactive)	2 µM (inactive)	4.66 µM (inactive)	8.18 µM (inactive)	10.7 µM (inactive)	2.61 µM (inactive)	2.07 µM (inactive)	10.8 µM (inactive)	11.9 µM (inactive)
C/C(=N/NC(=S)N(Cc1ccccn1)Cc1ccccn1)c1cnccn1	0.646 µM (active)	2.52 µM (inactive)	0.0303 µM (active)	9.84 µM (inactive)	1.26 µM (inactive)	0.373 µM (active)	0.432 µM (active)	0.646 µM (active)	0.0242 µM (active)	0.646 µM (active)	0.0948 µM (active)	0.393 µM (active)	0.429 µM (active)	1.23 µM (inactive)	2.67 µM (inactive)	0.578 µM (active)	6.46 µM (inactive)	2.49 µM (inactive)
c1cc(CNCCN2CCNCC2)ccn1	> 100 µM (inactive)	> 100 µM (inactive)	> 100 µM (inactive)	> 100 µM (inactive)	> 100 µM (inactive)	> 100 µM (inactive)	> 100 µM (inactive)	> 100 µM (inactive)	> 100 µM (inactive)	> 100 µM (inactive)	> 100 µM (inactive)	> 100 µM (inactive)	> 100 µM (inactive)	> 100 µM (inactive)	> 100 µM (inactive)	> 100 µM (inactive)	> 100 µM (inactive)	> 100 µM (inactive)
O=C(NCCCl)N(O)C(=O)Nc1ccccc1	> 100 µM (inactive)	> 100 µM (inactive)	> 100 µM (inactive)	> 100 µM (inactive)	> 100 µM (inactive)	> 100 µM (inactive)	98.2 µM (inactive)	67.8 µM (inactive)	74.6 µM (inactive)	> 100 µM (inactive)	> 100 µM (inactive)	> 100 µM (inactive)	> 100 µM (inactive)	> 100 µM (inactive)	> 100 µM (inactive)	> 100 µM (inactive)	> 100 µM (inactive)	> 100 µM (inactive)
COC(=O)c1ccc(C)cc1C1CN=NC12Cc1cc(C)ccc1C2=O (centres undefined)	15.3 µM (inactive)	13.8 µM (inactive)	3.32 µM (inactive)	12.1 µM (inactive)	30 µM (inactive)	16.4 µM (inactive)	8.28 µM (inactive)	14 µM (inactive)	6.64 µM (inactive)	9.14 µM (inactive)	10.3 µM (inactive)	21.3 µM (inactive)	11.8 µM (inactive)	21.7 µM (inactive)	2.37 µM (inactive)	4.41 µM (inactive)	8.67 µM (inactive)	11.5 µM (inactive)
COC(OC)C1OC(CO)C(n2ccc(N)nc2=O)C1O (centres undefined)	> 100 µM (inactive)	> 100 µM (inactive)	> 100 µM (inactive)	> 100 µM (inactive)	> 100 µM (inactive)	> 100 µM (inactive)	> 100 µM (inactive)	> 100 µM (inactive)	> 100 µM (inactive)	> 100 µM (inactive)	> 100 µM (inactive)	> 100 µM (inactive)	> 100 µM (inactive)	> 100 µM (inactive)	> 100 µM (inactive)	> 100 µM (inactive)	> 100 µM (inactive)	> 100 µM (inactive)
CN1C(=O)N/C(=C\c2ccc(S(=O)(=O)N/N=C/c3ccccc3)cc2)C1=O	27.7 µM (inactive)	21.2 µM (inactive)	30.9 µM (inactive)	> 100 µM (inactive)	> 100 µM (inactive)	18.6 µM (inactive)	13.6 µM (inactive)	11 µM (inactive)	27.6 µM (inactive)	30.9 µM (inactive)	14.5 µM (inactive)	34.8 µM (inactive)	21.2 µM (inactive)	17.1 µM (inactive)	32 µM (inactive)	10.4 µM (inactive)	35.5 µM (inactive)	22.1 µM (inactive)
